Key:
[1] = Tissue distribution of radioactivity after single intravenous administration of 14C-labeled Compound 1 (blood-brain barrier penetration); assay type: in vivo; settings: rats, single iv 5 mg/kg 14C-labeled; for Radioactivity concentration: n = 3
Method: [Testing the Penetration of the Compound Through the Blood-Brain Barrier]
Brain permeability (intracerebral transferability) of Compound 1 was evaluated.
^14C-labeled Compound 1 was intravenously administered once in a dose of 5 mg/kg (3.52 MBq/kg) to rats, and histological distribution (biodistribution) thereof was studied.

[2] = target: CDK9/CycT1 (Homo sapiens, UniProt P50750); experiment: CDK9 inhibitory activity, Off-chip Mobility Shift Assay (MSA); assay type: biochemical; settings: room temperature, one hour, read-out: IC50 value with respect to CDK9/CycT1
Method: [Assay of CDK9 Inhibitory Activity]
The tests for confirming CDK9 inhibitory activity were carried out by the following procedure according to Off-chip Mobility Shift Assay (MSA).
A substrate/ATP/metal solution (4×) was prepared with use of a kit buffer (20 mM HEPES, 0.01% Triton X-100, 5 mM DTT, pH7.5). A kinase solution (2×) was prepared with use of an assay buffer.
2) The test substance solutions, the substrate/ATP/metal solution, and the kinase solution were mixed in wells of a polypropylene plate, and were caused to react at room temperature for one hour.
3) A termination buffer (QuickScout Screening Assist MSA; Cama Biosciences Inc.)
was added thereto to stop the reaction.
4) Substrate peptides and phosphorylated peptides in the reaction solutions were separated and quantified in LabChip™ System (PerkinElmer Co., Ltd.).
5) Kinase reaction activities were evaluated based on a product ratio (P/(P+S)) calculated from a peak height of the substrate peptide (S) and a peak height of the phosphorylated peptide (P).

[3] = system: Human Herpesvirus Type 6A (HHV-6A); experiment: Antiviral test against HHV-6A in Sup-T1 cells, TaqMan PCR; assay type: cell-based
Method: [Antiviral Test Against HHV-6A]
An antiviral test against HHV-6A using Compound 1 was performed by the following procedure.
Virus strain: Human Herpesvirus Type 6A (HHV-6A)
(§1) Medium: RPMI-1640+10% FBS+1% penicillin/streptomycin
(§2) Detection method: TaqMan PCR
Sup-T1 cells were cultured at a concentration of 1×10^6/ml, Compound 1, 3 μM, was added, and one hour after, HHV-6A virus (1×10^4 infectious units) were sensitized (or unsensitized cells were prepared as a negative control).
After culturing at 37° C. for two hours, the medium was replaced, and Compound 1 was added again. Three days after, 500 μl of the medium was sampled, and HHV-6A virus was quantified by TaqMan PCR. Statistical analysis was performed by Student's t-test.

[4] = system: Human Herpesvirus Type 7 (HHV-7); experiment: Antiviral test against HHV-7 in Sup-T1 cells, TaqMan PCR; assay type: cell-based
Method: [Antiviral Test Against HHV-7]
An antiviral test against HHV-7 using Compound 1 was performed by the following procedure.
Virus strain: Human Herpesvirus Type 7 (HHV-7)
as §1, §2
Sup-T1 cells were cultured at a concentration of 1×10^6/ml, Compound 1, 10 μM, was added, and one hour after, HHV-7 virus (1×10^4 infectious units) were sensitized (or unsensitized cells were prepared as a negative control).
After culturing at 37° C. for two hours, the medium was replaced, and Compound 1 was added again. Five days after, 500 μl of the medium was sampled, and HHV-7 virus was quantified by TaqMan PCR. Statistical analysis was performed by Student's t-test.

Sequence of CDK9/CycT1 (P50750 whole entry): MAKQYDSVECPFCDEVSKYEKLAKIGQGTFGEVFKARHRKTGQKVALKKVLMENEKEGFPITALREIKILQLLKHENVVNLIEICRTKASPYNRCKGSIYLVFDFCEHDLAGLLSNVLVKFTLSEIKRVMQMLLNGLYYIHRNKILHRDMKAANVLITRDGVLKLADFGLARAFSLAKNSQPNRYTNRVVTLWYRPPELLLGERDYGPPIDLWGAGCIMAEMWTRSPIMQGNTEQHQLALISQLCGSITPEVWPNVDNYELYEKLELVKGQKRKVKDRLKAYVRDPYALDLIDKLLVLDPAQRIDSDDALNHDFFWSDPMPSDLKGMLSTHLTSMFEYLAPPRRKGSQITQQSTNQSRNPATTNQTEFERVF
Sequence of CDK9/CycT1 (O60563 whole entry partner): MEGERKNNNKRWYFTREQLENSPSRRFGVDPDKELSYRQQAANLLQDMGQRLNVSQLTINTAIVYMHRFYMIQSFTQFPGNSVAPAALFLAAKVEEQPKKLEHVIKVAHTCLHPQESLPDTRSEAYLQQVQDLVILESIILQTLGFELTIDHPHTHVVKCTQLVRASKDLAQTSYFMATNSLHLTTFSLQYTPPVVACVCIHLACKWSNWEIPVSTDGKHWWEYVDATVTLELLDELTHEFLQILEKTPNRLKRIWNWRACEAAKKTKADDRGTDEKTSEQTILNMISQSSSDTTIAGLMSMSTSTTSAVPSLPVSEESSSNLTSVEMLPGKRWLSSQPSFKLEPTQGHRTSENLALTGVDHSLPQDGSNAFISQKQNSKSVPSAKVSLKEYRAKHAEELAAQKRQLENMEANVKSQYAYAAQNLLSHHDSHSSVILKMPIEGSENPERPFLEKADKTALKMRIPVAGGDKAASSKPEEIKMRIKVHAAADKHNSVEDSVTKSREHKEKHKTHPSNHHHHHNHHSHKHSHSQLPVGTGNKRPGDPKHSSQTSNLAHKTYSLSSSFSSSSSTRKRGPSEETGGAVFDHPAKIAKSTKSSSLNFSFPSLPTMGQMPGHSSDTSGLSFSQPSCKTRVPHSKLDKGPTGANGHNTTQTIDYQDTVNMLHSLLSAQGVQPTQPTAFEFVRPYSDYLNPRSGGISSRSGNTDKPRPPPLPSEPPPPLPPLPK

SMILES: Fc1ccc(N2CCCCC2)c(NC(=S)c2ccncc2)c1 [Compound 1]
- Radioactivity concentration ([1]; Mandibular gland, 24 h): 115.51 ng eq. of Compound 1/g or mL
- Radioactivity concentration ([1]; Mandibular gland, 72 h): 8.87 ng eq. of Compound 1/g or mL
- Radioactivity concentration ([1]; Mandibular lymph node, 5 min): 5693.66 ng eq. of Compound 1/g or mL
- Radioactivity concentration ([1]; Mandibular lymph node, 6 h): 1018.12 ng eq. of Compound 1/g or mL
- Radioactivity concentration ([1]; Mandibular lymph node, 24 h): 108.82 ng eq. of Compound 1/g or mL
- Radioactivity concentration ([1]; Mandibular lymph node, 72 h): 8.13 ng eq. of Compound 1/g or mL
- Radioactivity concentration ([1]; Pancreas, 5 min): 14356.66 ng eq. of Compound 1/g or mL
- Radioactivity concentration ([1]; Pancreas, 6 h): 1206.84 ng eq. of Compound 1/g or mL
- Radioactivity concentration ([1]; Pancreas, 24 h): 105.62 ng eq. of Compound 1/g or mL
- Radioactivity concentration ([1]; Pancreas, 72 h): 7.37 ng eq. of Compound 1/g or mL
- Radioactivity concentration ([1]; Prostate gland, 5 min): 5072.42 ng eq. of Compound 1/g or mL
- Radioactivity concentration ([1]; Prostate gland, 6 h): 1268.5 ng eq. of Compound 1/g or mL
- Radioactivity concentration ([1]; Prostate gland, 24 h): 114.45 ng eq. of Compound 1/g or mL
- Radioactivity concentration ([1]; Prostate gland, 72 h): 7.62 ng eq. of Compound 1/g or mL
- Radioactivity concentration ([1]; Skeletal muscle, 5 min): 2479.87 ng eq. of Compound 1/g or mL
- Radioactivity concentration ([1]; Skeletal muscle, 6 h): 838.23 ng eq. of Compound 1/g or mL
- Radioactivity concentration ([1]; Skeletal muscle, 24 h): 97.94 ng eq. of Compound 1/g or mL
- Radioactivity concentration ([1]; Skeletal muscle, 72 h): 10.11 ng eq. of Compound 1/g or mL
- Radioactivity concentration ([1]; Skin, 5 min): 3889.26 ng eq. of Compound 1/g or mL
- Radioactivity concentration ([1]; Skin, 6 h): 2084.85 ng eq. of Compound 1/g or mL
- Radioactivity concentration ([1]; Skin, 24 h): 150.1 ng eq. of Compound 1/g or mL
- Radioactivity concentration ([1]; Skin, 72 h): 23.26 ng eq. of Compound 1/g or mL
- Radioactivity concentration ([1]; Skin, 168 h): 6.57 ng eq. of Compound 1/g or mL
- Radioactivity concentration ([1]; Small intestine, 5 min): 6555.86 ng eq. of Compound 1/g or mL
- Radioactivity concentration ([1]; Small intestine, 6 h): 1979.83 ng eq. of Compound 1/g or mL
- Radioactivity concentration ([1]; Small intestine, 24 h): 156.71 ng eq. of Compound 1/g or mL
- Radioactivity concentration ([1]; Small intestine, 72 h): 9.85 ng eq. of Compound 1/g or mL
- Radioactivity concentration ([1]; Spleen, 5 min): 6622.6 ng eq. of Compound 1/g or mL
- Radioactivity concentration ([1]; Spleen, 6 h): 944.65 ng eq. of Compound 1/g or mL
- Radioactivity concentration ([1]; Spleen, 24 h): 113.01 ng eq. of Compound 1/g or mL
- Radioactivity concentration ([1]; Spleen, 72 h): 9.68 ng eq. of Compound 1/g or mL
- Radioactivity concentration ([1]; Stomach, 5 min): 8261.97 ng eq. of Compound 1/g or mL
- Radioactivity concentration ([1]; Stomach, 6 h): 2309.97 ng eq. of Compound 1/g or mL
- Radioactivity concentration ([1]; Stomach, 24 h): 227.12 ng eq. of Compound 1/g or mL
- Radioactivity concentration ([1]; Testis, 5 min): 2762.22 ng eq. of Compound 1/g or mL
- Radioactivity concentration ([1]; Testis, 6 h): 1217.12 ng eq. of Compound 1/g or mL
- Radioactivity concentration ([1]; Testis, 24 h): 128.05 ng eq. of Compound 1/g or mL
- Radioactivity concentration ([1]; Testis, 72 h): 8.72 ng eq. of Compound 1/g or mL
- Radioactivity concentration ([1]; Thymus, 5 min): 5034.15 ng eq. of Compound 1/g or mL
- Radioactivity concentration ([1]; Thymus, 6 h): 954.13 ng eq. of Compound 1/g or mL
- Radioactivity concentration ([1]; Thymus, 24 h): 97.42 ng eq. of Compound 1/g or mL
- Radioactivity concentration ([1]; Thymus, 72 h): 5.22 ng eq. of Compound 1/g or mL
- Radioactivity concentration ([1]; Thyroid gland, 5 min): 9550.71 ng eq. of Compound 1/g or mL
- Radioactivity concentration ([1]; Thyroid gland, 6 h): 2369.71 ng eq. of Compound 1/g or mL
- Radioactivity concentration ([1]; Thyroid gland, 24 h): 793.99 ng eq. of Compound 1/g or mL
- Radioactivity concentration ([1]; Thyroid gland, 72 h): 298.2 ng eq. of Compound 1/g or mL
- Radioactivity concentration ([1]; Thyroid gland, 168 h): 125.76 ng eq. of Compound 1/g or mL
- Brain permeability (intracerebral transferability) ([1]; cerebellum, cerebrum, pituitary gland higher than plasma at 5 minutes): capable of penetrating the brain
- IC50 [2]: 5.8 µM
- Effect of suppressing growth of HHV-6A ([3]; 3 μM, in words): effect of suppressing growth of HHV-6A in the Compound 1-treated group was confirmed
- HHV-6A copy number ([3]; Compound 1 3 μM, medium sampled three days after, TaqMan PCR): 6767.59
- Effect of suppressing growth of HHV-7 ([4]; 10 μM, in words): effect of suppressing growth of HHV-7 was confirmed
- HHV-7 copy number ([4]; Compound 1 10 μM, medium sampled five days after, TaqMan PCR): 1844.89

Reference: US20220226341A1, “Pharmaceutical Composition for Alzheimer's Disease” (Kyoto University, priority 2019, published 2022)
